Assay results taken from article PMC5379148, “A phase I study of intravenous and oral rucaparib in combination with chemotherapy in patients with advanced solid tumours” (British Journal of Cancer, 2017).
Where two headings read alike, the source gives them in different places.

Assays:
[1] = test system: advanced ovarian or breast cancer associated with a germline BRCA1/2 mutation; parameters: method as in Drew et al, 2016; conditions: single agent, ref Drew et al, 2016, cited from earlier work
advanced solid tumours = experiment: Investigator-assessed tumour response (RECIST version 1.1); assay type: in vivo, human
Description: Antitumour activity was assessed by the investigators according to Response Evaluation Criteria in Solid Tumor version 1.1 (RECIST) ([Eisenhauer et al, 2009]) through radiological tumour assessments performed every two cycles and/or at the end of treatment, whichever occurred first.

[2] = test system: patients with advanced solid tumours; experiment: Dose-limiting toxicities in cycle 1 and maximum tolerated dose; assay type: in vivo, human; conditions: days 1–14, with AUC5 carboplatin day 1, 21-day cycles
Description: Initially, at least three patients were treated at each dose level. If no DLT was observed, the dose was escalated for the next cohort of three patients. […] If no further DLT was observed, the next dose level was opened. […] When a dose was concluded to be above the MTD, the preceding lower dose was declared the MTD, but only if six patients had already been treated at this lower dose.
All patients who received at least one dose of study medication were evaluable for toxicity.

[3] = in vivo
Description: On cycle 1 days −10, −5, 1, and 14, plasma samples were obtained from all patients before rucaparib dosing and at 15 and 30 min, and at 1, 1.5, 2.5, 4, 6, 10, and 24 h after the start of the rucaparib administration (i.v. infusion (day −10) or oral (days −5, 1, and 14)). On cycle 1 days −10 and −5, samples were also obtained 48 h after the start of rucaparib administration. Rucaparib concentration was determined using liquid chromatography with tandem mass spectrometry.
Plasma clearance or apparent plasma clearance and steady-state volume of distribution were calculated for rucaparib. The oral bioavailability of rucaparib was calculated as the ratio of dose-normalised AUC0–t or AUCinf (data permitting) determined using oral rucaparib PK data collected on cycle 1 day −5 to that determined using the i.v. PK data collected on cycle 1 day −10. Pharmacokinetic parameters were summarised with the geometric mean and the coefficient of variation (CV). The ratio of Cmax and AUC0–24 of rucaparib administered in combination with chemotherapies to those of rucaparib alone was calculated and summarised, with mean and CV% to evaluate the effect of chemotherapies on the PK of rucaparib for both the i.v. dose (day −10) and oral dose (day −5).
The oral bioavailability of rucaparib was calculated as the ratio of dose-normalised AUC0-t or AUCinf (data permitting) determined using oral rucaparib PK data collected on cycle 1 day –5 to that determined using the intravenous PK data collected on cycle 1 day –10. The tmax was summarised with medians and ranges. The accumulation ratio after multiple oral rucaparib dosing (once daily) was assessed as the ratio of the AUC0-24 determined using PK collected on cycle 1 day 14 to the AUC0-24 after the cycle 1 day –5 lead-in dose. The ratio of the Cmax on day 14 to the Cmax on day –5 was also calculated. Additionally, the ratio of the AUC0-24 on cycle 1 day 14 to the AUCinf after the cycle 1 day –5 lead-in dose was calculated as an indication for any time-dependent change in rucaparib PK.

[4] = test system: patients with advanced solid tumours
Description: This study was an open-label, multicentre, dose-escalating phase I study of rucaparib administered in combination with one of four different standard chemotherapeutic regimens (NCT01009190). […] The primary objective was to assess safety and tolerability and estimate the maximum tolerated dose (MTD) and/or select the recommended phase II dose of rucaparib in combination with chemotherapy. Secondary objectives were to characterise the pharmacokinetics (PK) and assess the antitumour activity of rucaparib when combined with chemotherapy.
Safety assessments included collection of adverse events (AEs) and serious AEs (defined by National Cancer Institute Common Terminology Criteria for Adverse Events version 3.0; [Pedersen et al, 2013]), as well as vital signs, physical examination, 12-lead electrocardiogram, laboratory assessments, and verification of concurrent medications. Safety variables and demographic data were presented descriptively. The safety analysis set included all enrolled patients who started treatment.

[5] = investigator-assessed, RECIST 1.1, All patients (N=85), all arms

CNCc1ccc(-c2[nH]c3cc(F)cc4c3c2CCNC4=O)cc1 [rucaparib]
response rate ([1]; continuous oral dosing): 18%
response rate ([1]; intermittent intravenous (i.v.) dosing): 2%
disease control rate (CR, PR, or SD for ⩾12 weeks) (advanced solid tumours; across all cohorts, among patients with available data (77 of 85)): 68.8%
partial responses that were confirmed (advanced solid tumours; across all cohorts, of 9 patients with PR): 7 patients
Best response: Complete response (advanced solid tumours; [5]): 1 (1.2) n (%)
Best response: Partial response (advanced solid tumours; [5]): 9 (10.6) n (%)
Best response: Progressive disease (advanced solid tumours; [5]): 24 (28.2) n (%)
Best response: Stable disease (advanced solid tumours; [5]): 43 (50.6) n (%)
MTD of oral rucaparib in the combination [2]: 240 mg once daily (q.d.)
change in t1/2 at steady state compared with a single dose ([3]; human): no change
Ratio of rucaparib AUC0–24, day 1/day −10 ([3]; human, iv, 24 mg): 1.02 (15)
Ratio of rucaparib Cmax, day 1/day −10 ([3]; human, iv, 24 mg): 1.03 (16)
average increase of steady-state AUC0–24 compared with a single dose ([3]; human, po): 61%
CL/F ([3]; human, po, 12 mg): 53.4 (39.7) L h^–1
CL/F ([3]; human, po, 36 mg): 32.7 (41.9) L h^–1
CL/F ([3]; human, po, 48 mg): 52.1 (150) L h^–1
CL/F ([3]; human, po, 72 mg): 65.9 (49.4) L h^–1
AR, accumulation ratio [AUC0-24, Day 14/AUC0-24, Day -5] ([3]; human, po, 80 mg): 1.19 (-)
ARcm, accumulation ratio of Cmax on day 14 to Cmax on day –5 ([3]; human, po, 80 mg): 1.50 (-)
AUC ratio [time-dependent linearity] ([3]; human, po, 80 mg): 0.655 (-)
AR, accumulation ratio [AUC0-24, Day 14/AUC0-24, Day -5] ([3]; human, po, 120 mg): 1.49 (104)
ARcm, accumulation ratio of Cmax on day 14 to Cmax on day –5 ([3]; human, po, 120 mg): 1.41 (99.8)
AUC ratio [time-dependent linearity] ([3]; human, po, 120 mg): 1.14 (101)
AR, accumulation ratio [AUC0-24, Day 14/AUC0-24, Day -5] ([3]; human, po, 180 mg): 1.36 (8.48)
ARcm, accumulation ratio of Cmax on day 14 to Cmax on day –5 ([3]; human, po, 180 mg): 1.11 (31.1)
AUC ratio [time-dependent linearity] ([3]; human, po, 180 mg): 0.785 (13.3)
CL/F ([3]; human, po, 180 mg): 21.4 (68.6) L h^–1
AR, accumulation ratio [AUC0-24, Day 14/AUC0-24, Day -5] ([3]; human, po, 240 mg): 1.64 (28.2)
ARcm, accumulation ratio of Cmax on day 14 to Cmax on day –5 ([3]; human, po, 240 mg): 1.30 (29.7)
AUC ratio [time-dependent linearity] ([3]; human, po, 240 mg): 1.01 (31.6)
AR, accumulation ratio [AUC0-24, Day 14/AUC0-24, Day -5] ([3]; human, po, 360 mg): 1.7 (46.3)
ARcm, accumulation ratio of Cmax on day 14 to Cmax on day –5 ([3]; human, po, 360 mg): 1.29 (46.1)
AUC ratio [time-dependent linearity] ([3]; human, po, 360 mg): 1.06 (53.1)
dose dependence of exposure [3]: increased approximately dose proportionally
effect of carboplatin coadministration on rucaparib oral PK ([3]; po): not affected
Patients who died of disease progression while on study ([4]; across treatment arms, assessed as unrelated to study drug): 7.1%
Anaemia ([4]; human, in vivo): 31 (36.5) n (%)
Asthenia ([4]; human, in vivo): 3 (3.5) n (%)
Constipation ([4]; human, in vivo): 22 (25.9) n (%)
Decreased appetite ([4]; human, in vivo): 17 (20.0) n (%)
Diarrhoea ([4]; human, in vivo): 17 (20.0) n (%)
Discontinued treatment with AE as the primary reason ([4]; human, in vivo): 18.4%
Fatigue ([4]; human, in vivo): 45 (52.9) n (%)
Grade ⩾3 AEs, patients ([4]; human, in vivo): 75.3%
Grade ⩾3 anaemia, patients ([4]; human, in vivo): 11.8%
Grade ⩾3 dyspnoea, patients ([4]; human, in vivo): 5.9%
Grade ⩾3 fatigue, patients ([4]; human, in vivo): 12.9%
Grade ⩾3 nausea, patients ([4]; human, in vivo): 7.1%
Grade ⩾3 neutropenia, patients ([4]; human, in vivo): 27.1%
Grade ⩾3 thrombocytopenia, patients ([4]; human, in vivo): 18.8%
Grade ⩾3 vomiting, patients ([4]; human, in vivo): 5.9%
Grade ⩾3 γ-glutamyltransferase increased, patients ([4]; human, in vivo): 5.9%
Lethargy ([4]; human, in vivo): 15 (17.6) n (%)
Leukopenia ([4]; human, in vivo): 7 (8.2) n (%)
Lymphopenia ([4]; human, in vivo): 6 (7.1) n (%)
Myalgia ([4]; human, in vivo): 7 (8.2) n (%)
Nausea ([4]; human, in vivo): 48 (56.5) n (%)
Neuropathy peripheral ([4]; human, in vivo): 10 (11.8) n (%)
Neutropenia ([4]; human, in vivo): 32 (37.6) n (%)
Patients who discontinued treatment because of AEs ([4]; human, in vivo): 25.9%
Patients who discontinued treatment because of neutropenia ([4]; human, in vivo): 3.5%
Patients who discontinued treatment because of platinum hypersensitivity ([4]; human, in vivo): 2.4%
Patients who discontinued treatment because of thrombocytopenia ([4]; human, in vivo): 2.4%
Stomatitis ([4]; human, in vivo): 14 (16.5) n (%)
Thrombocytopenia ([4]; human, in vivo): 27 (31.8) n (%)
Vomiting ([4]; human, in vivo): 28 (32.9) n (%)
≥1 treatment-related adverse event ([4]; human, in vivo): 80 (94.1) n (%)
Alopecia ([4]; treatment-related, any grade, All patients (N = 85), all arms): 15 (17.6) n (%)
